Laboratory results from patent US12138256B2, “Treatment of cardiopulmonary disorders” (Bayer Aktiengesellschaft, priority 2021, dated 2024).
Where “and” joins values, the source holds several entries; their conditions need not be identical. Equal values may be shown once.

Tested on: thromboxane analog U46619 induced PAH in minipigs
Test: Haemodynamics (PAP, BP) in the anesthetized thromboxane challenged PAH minipig after inhaled (nebulized) application (C-2.1)
Type: in vivo, Göttingen minipig
Conditions: for PAP % change vs. baseline / PAP % changes vs prevalue, mean / BP % change vs. baseline: 100 μg/kg nominal dose; for PAP % change vs. baseline / BP % change vs. baseline: individual animals; for PAP % changes vs prevalue, mean: n = 3; for % changes in BP vs baseline / % changes in PAP vs baseline: inhaled 30 μg/kg
In short: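 Anesthetized, ventilated Göttingen minipigs (2-6 kg) given continuous infusion (0.3-0.75 μg/kg/min) to raise mean PAP above 25 mmHg, dosing starting after a 30 min plateau. Compound in 1% DMSO/0.2% citric acid, pH 8, nebulized via Aeroneb Pro into the inspiratory arm (~7 min; stock 300 μg/kg). PAP by Swan-Ganz catheter, BP via carotid catheter.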

O=C(O)c1ccc(CCN(CCc2ccccc2OCc2ccc(-c3ccc(C(F)(F)F)cc3)cc2Cl)[C@H]2CCCc3nc(C(=O)O)ccc32)cc1 [comparative example 11, (5S)-5-{[2-(4-carboxyphenyl)ethyl][2-(2-{[3-chloro-4′-(trifluoromethyl)[biphenyl]-4-yl]methoxy}phenyl)ethyl]amino}-5,6,7,8-tetrahydroquinoline-2-carboxylic acid]
PAP % change vs. baseline (inhaled, time 190 min): 77.0% and 61.7% and 68.1%
PAP % changes vs prevalue, mean (inhaled, time 190 min): −30.5%
BP % change vs. baseline (inhaled, time 200 min): 99.9% and 90.4% and 98.2%
PAP % change vs. baseline (inhaled, time 200 min): 77.0% and 62.5% and 68.2%
PAP % changes vs prevalue, mean (inhaled, time 200 min): −30.9%
BP % change vs. baseline (inhaled, time 210 min): 98.8% and 90.4% and 97.3%
PAP % change vs. baseline (inhaled, time 210 min): 76.5% and 62.0% and 67.9%
PAP % changes vs prevalue, mean (inhaled, time 210 min): −30.6%
BP % change vs. baseline (inhaled, time 220 min): 101.0% and 90.4% and 97.3%
PAP % change vs. baseline (inhaled, time 220 min): 77.2% and 61.2% and 68.1%
PAP % changes vs prevalue, mean (inhaled, time 220 min): −31.6%
BP % change vs. baseline (inhaled, time 230 min): 99.9% and 90.4% and 96.3%
PAP % change vs. baseline (inhaled, time 230 min): 76.3% and 61.2% and 67.7%
PAP % changes vs prevalue, mean (inhaled, time 230 min): −31.2%
BP % change vs. baseline (inhaled, time 240 min): 98.8% and 89.5% and 95.4%
PAP % change vs. baseline (inhaled, time 240 min): 76.5% and 62.5% and 67.8%
PAP % changes vs prevalue, mean (inhaled, time 240 min): −31.0%
BP % change vs. baseline (inhaled, time 250 min): 98.8% and 89.5% and 95.4%
PAP % change vs. baseline (inhaled, time 250 min): 77.6% and 63.0% and 69.1%
BP % change vs. baseline (inhaled, time 260 min): 97.7% and 87.7% and 95.4%
PAP % change vs. baseline (inhaled, time 260 min): 77.4% and 62.0% and 67.4%
BP % change vs. baseline (inhaled, time 270 min): 96.6% and 86.8% and 99.2%
PAP % change vs. baseline (inhaled, time 270 min): 77.5% and 61.5% and 67.9%
BP % change vs. baseline (inhaled, time 280 min): 96.6% and 86.8% and 96.3%
PAP % change vs. baseline (inhaled, time 280 min): 77.5% and 63.0% and 68.1%
BP % change vs. baseline (inhaled, time 290 min): 97.7% and 86.8% and 94.4%
PAP % change vs. baseline (inhaled, time 290 min): 77.3% and 62.5% and 67.8%
BP % change vs. baseline (inhaled, time 300 min): 96.6% and 85.1% and 93.4%
PAP % change vs. baseline (inhaled, time 300 min): 78.1% and 63.0% and 67.3%
BP % change vs. baseline (inhaled, time 310 min): 95.5% and 83.3% and 93.4%
PAP % change vs. baseline (inhaled, time 310 min): 76.7% and 60.5% and 68.1%
BP % change vs. baseline (inhaled, time 320 min): 95.5% and 81.6% and 92.5%
PAP % change vs. baseline (inhaled, time 320 min): 75.6% and 63.2% and 67.7%
BP % change vs. baseline (inhaled, time 330 min): 95.5% and 79.8% and 92.5%
PAP % change vs. baseline (inhaled, time 330 min): 76.5% and 63.0% and 67.6%
duration of action compared to Ventavis (PAH minipig model, inhaled): more than 6 times
time of maximum effect on PAP (after inhaled application (nebulization), comparative example 11 30 μg/kg, Cinaciguat 3 and 10 μg/kg, Riociguat 100 μg/kg, comparative example 3 30 μg/kg): around 60 min
% changes in BP vs baseline (0 min vs. start inhalation): 99%
% changes in PAP vs baseline (0 min vs. start inhalation): 100% and 99%
% changes in BP vs baseline (10 min vs. start inhalation): 99% and 100%
% changes in PAP vs baseline (10 min vs. start inhalation): 102% and 99%
% changes in BP vs baseline (20 min vs. start inhalation): 96% and 98%
% changes in PAP vs baseline (20 min vs. start inhalation): 101% and 97%
% changes in BP vs baseline (30 min vs. start inhalation): 94% and 95%
% changes in PAP vs baseline (30 min vs. start inhalation): 101% and 97%
% changes in BP vs baseline (40 min vs. start inhalation): 91%
% changes in PAP vs baseline (40 min vs. start inhalation): 100% and 97%
% changes in BP vs baseline (50 min vs. start inhalation): 89% and 90%
% changes in PAP vs baseline (50 min vs. start inhalation): 102% and 96%
% changes in BP vs baseline (60 min vs. start inhalation): 86% and 88%
% changes in PAP vs baseline (60 min vs. start inhalation): 101% and 96%
% changes in BP vs baseline (70 min vs. start inhalation): 86% and 85%
% changes in PAP vs baseline (70 min vs. start inhalation): 103% and 95%
% changes in BP vs baseline (80 min vs. start inhalation): 85% and 86%
% changes in PAP vs baseline (80 min vs. start inhalation): 101% and 94%
% changes in BP vs baseline (90 min vs. start inhalation): 85%
% changes in PAP vs baseline (90 min vs. start inhalation): 102% and 94%
% changes in BP vs baseline (100 min vs. start inhalation): 85% and 84%
% changes in PAP vs baseline (100 min vs. start inhalation): 103% and 92%
% changes in BP vs baseline (110 min vs. start inhalation): 84%
% changes in PAP vs baseline (110 min vs. start inhalation): 102% and 94%
% changes in BP vs baseline (120 min vs. start inhalation): 85% and 84%
% changes in PAP vs baseline (120 min vs. start inhalation): 101% and 92%
% changes in BP vs baseline (130 min vs. start inhalation): 85%
% changes in PAP vs baseline (130 min vs. start inhalation): 102% and 95%
% changes in BP vs baseline (140 min vs. start inhalation): 85%
% changes in PAP vs baseline (140 min vs. start inhalation): 101% and 95%
% changes in BP vs baseline (150 min vs. start inhalation): 84%
% changes in PAP vs baseline (150 min vs. start inhalation): 100% and 92%
% changes in BP vs baseline (160 min vs. start inhalation): 85% and 84%
% changes in PAP vs baseline (160 min vs. start inhalation): 100% and 91%
% changes in BP vs baseline (170 min vs. start inhalation): 86% and 85%
% changes in PAP vs baseline (170 min vs. start inhalation): 101% and 91%
% changes in BP vs baseline (180 min vs. start inhalation): 86%
% changes in PAP vs baseline (180 min vs. start inhalation): 101% and 91%
% changes in BP vs baseline (190 min vs. start inhalation): 86% and 84%
% changes in PAP vs baseline (190 min vs. start inhalation): 101% and 91%
% changes in BP vs baseline (200 min vs. start inhalation): 87% and 83%
% changes in PAP vs baseline (200 min vs. start inhalation): 101% and 90%
% changes in BP vs baseline (210 min vs. start inhalation): 88% and 84%
% changes in PAP vs baseline (210 min vs. start inhalation): 101% and 91%
% changes in BP vs baseline (220 min vs. start inhalation): 87%
% changes in PAP vs baseline (220 min vs. start inhalation): 99% and 92%
% changes in BP vs baseline (230 min vs. start inhalation): 89% and 86%
% changes in PAP vs baseline (230 min vs. start inhalation): 102% and 91%
% changes in BP vs baseline (240 min vs. start inhalation): 88% and 85%
% changes in PAP vs baseline (240 min vs. start inhalation): 99% and 92%
% changes in BP vs baseline (−5 min vs. start inhalation): 101% and 96%
% changes in PAP vs baseline (−5 min vs. start inhalation): 99%
effect on systemic BP (inhaled, 30 μg/kg): did not show any decrease on systemic BP
lung selectivity (inhaled, nominal dose of 100 μg/kg): good lung selectivity
duration of action (inhaled, Ventavis 10 μg/kg nominal dose, comparative example 11 10, 30 and 100 μg/kg nominal dose, 240 min observation interval): ≥ 240 min
